{"source": "ChEMBL document CHEMBL3632525", "about": "“Decorated 6,6,7,7-tetrahydro-1H,1H-2,3-biindole scaffold as promising candidate for recognition of the CDK2 allosteric site” (Medchemcomm, 2015)", "key": {"Vero [1]": {"system": "Vero", "test": "Cytotoxicity against African green monkey Vero cells assessed as reduction of cell viability at 80 to 100 uM by CellTiter-Glo luminescent assay", "assay_type": "cell-based", "details": "chlorocebus sabaeus, TDE = time-dependent effect"}, "HEp-2 [2]": {"system": "HEp-2", "test": "Cytotoxicity against human Hep2 cells assessed as reduction of cell viability at 80 to 100 uM by CellTiter-Glo luminescent assay", "assay_type": "functional, cell-based", "details": "TDE = time-dependent effect"}, "HEK-293T [3]": {"system": "HEK-293T", "test": "Cytotoxicity against HEK293T cells assessed as reduction of cell viability at 80 to 100 uM by CellTiter-Glo luminescent assay", "assay_type": "functional, cell-based", "details": "Homo sapiens, TDE = time-dependent effect"}, "Vero [4]": {"system": "Vero", "test": "Cytotoxicity against African green monkey Vero cells assessed as reduction of cell viability after 24 to 72 hrs by CellTiter-Glo luminescent assay", "assay_type": "cell-based", "details": "chlorocebus sabaeus"}, "HEp-2 [5]": {"system": "HEp-2", "test": "Cytotoxicity against human Hep2 cells assessed as reduction of cell viability after 24 to 72 hrs by CellTiter-Glo luminescent assay", "assay_type": "functional, cell-based"}, "HEK-293T [6]": {"system": "HEK-293T", "test": "Cytotoxicity against HEK293T cells assessed as reduction of cell viability after 24 to 72 hrs by CellTiter-Glo luminescent assay", "assay_type": "functional, cell-based", "details": "Homo sapiens"}, "Vero [7]": {"system": "Vero", "test": "Inhibition of CDK2 phosphorylation in African green monkey Vero cells at 100 uM after 24 hrs by Western blot analysis relative to control", "assay_type": "cell-based", "details": "Chlorocebus sabaeus"}, "[8]": {"biological_target": "T1, Cyclin-dependent kinase 2 (Homo sapiens, UniProt P24941)", "test": "Inhibition of CDK2 phosphorylation in human Hep2 cells at 100 uM after 24 hrs by Western blot analysis relative to control", "assay_type": "cell-based", "details": "HEp-2"}, "[9]": {"biological_target": "T1, Cyclin-dependent kinase 2", "test": "Inhibition of CDK2 phosphorylation in HEK293T cells at 100 uM after 24 hrs by Western blot analysis relative to control", "assay_type": "cell-based", "details": "HEK-293T"}, "Vero [10]": {"system": "Vero", "test": "Inhibition of cyclin E phosphorylation in African green monkey Vero cells at 100 uM after 24 hrs by Western blot analysis relative to control", "assay_type": "cell-based", "details": "Chlorocebus sabaeus"}, "[11]": {"biological_target": "G1/S-specific cyclin-E1 (Homo sapiens) (UniProt P24864)", "sequence (P24864 whole entry)": "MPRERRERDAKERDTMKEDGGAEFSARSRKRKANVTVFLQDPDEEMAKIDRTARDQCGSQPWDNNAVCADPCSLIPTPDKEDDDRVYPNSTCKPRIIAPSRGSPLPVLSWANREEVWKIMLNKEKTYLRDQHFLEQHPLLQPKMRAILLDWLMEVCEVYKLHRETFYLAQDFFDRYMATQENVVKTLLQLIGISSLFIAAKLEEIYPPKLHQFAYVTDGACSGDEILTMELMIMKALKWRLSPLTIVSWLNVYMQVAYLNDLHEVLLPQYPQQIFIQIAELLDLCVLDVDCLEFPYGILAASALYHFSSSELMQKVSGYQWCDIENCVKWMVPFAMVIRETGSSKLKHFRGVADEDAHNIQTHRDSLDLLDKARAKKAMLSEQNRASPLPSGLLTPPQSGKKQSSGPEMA", "test": "Inhibition of cyclin E phosphorylation in human Hep2 cells at 100 uM after 24 hrs by Western blot analysis relative to control", "assay_type": "cell-based", "details": "HEp-2"}, "[12]": {"biological_target": "G1/S-specific cyclin-E1 (Homo sapiens) (UniProt P24864)", "test": "Inhibition of cyclin E phosphorylation in HEK293T cells at 100 uM after 24 hrs by Western blot analysis relative to control", "assay_type": "cell-based", "details": "HEK-293T"}, "Vero [13]": {"system": "Vero", "test": "Inhibition of CDK2/Cyclin E in African green monkey Vero cells assessed as reduction of hyperphosphorylated pRB expression at 100 uM after 24 hrs by Western blot analysis relative to control", "assay_type": "cell-based", "details": "Chlorocebus sabaeus"}, "[14]": {"biological_target": "T2, Cyclin-dependent kinase 2/cyclin E1 (Homo sapiens) (UniProt P24864+P24941)", "test": "Inhibition of CDK2/Cyclin E in human Hep2 cells assessed as reduction of hyperphosphorylated pRB expression at 100 uM after 24 hrs by Western blot analysis relative to control", "assay_type": "cell-based", "details": "HEp-2"}, "[15]": {"biological_target": "T2, Cyclin-dependent kinase 2/cyclin E1 (Homo sapiens)", "test": "Inhibition of CDK2/Cyclin E in HEK293T cells assessed as reduction of hyperphosphorylated pRB expression at 100 uM after 24 hrs by Western blot analysis relative to control", "assay_type": "cell-based", "details": "HEK-293T"}, "[16]": {"biological_target": "T2, Cyclin-dependent kinase 2/cyclin E1 (Homo sapiens)", "test": "Inhibition of CDK2/Cyclin E in HEK293T cells assessed as reduction of EGF-stimulated E2F pathway after 24 hrs by dual-Glo luciferase reporter gene assay relative to control", "assay_type": "cell-based", "details": "HEK-293T"}, "[17]": {"biological_target": "T1, Cyclin-dependent kinase 2", "test": "Binding affinity to CDK2 allosteric site (unknown origin)"}}, "note": "The source made the active and inactive calls. The calls are words filed in the database; no cut-off is given here."}
{"smiles": "Cc1[nH]c2c(c1C1(C)NC3=C(C(=O)CC(c4ccccc4)C3)C1=O)C(=O)CC(c1ccccc1)C2", "note": "(configuration not stated)", "values": [{"measurement": "Activity", "setting": "Vero [1]", "result": "tde"}, {"measurement": "Activity", "setting": "HEp-2 [2]", "result": "tde"}, {"measurement": "Activity", "setting": "HEK-293T [3]", "result": "tde"}, {"measurement": "Activity", "setting": "Vero [4]", "result": "Dose-dependent effect"}, {"measurement": "Activity", "setting": "HEp-2 [5]", "result": "Dose-dependent effect"}, {"measurement": "Activity", "setting": "HEK-293T [6]", "result": "Dose-dependent effect"}, {"measurement": "inhibition", "setting": "Vero [7]", "result": "Active"}, {"measurement": "inhibition", "setting": "[8]", "result": "Active"}, {"measurement": "inhibition", "setting": "[9]", "result": "Active"}, {"measurement": "inhibition", "setting": "Vero [10]", "result": "Active"}, {"measurement": "inhibition", "setting": "[11]", "result": "Active"}, {"measurement": "inhibition", "setting": "[12]", "result": "Active"}, {"measurement": "inhibition", "setting": "Vero [13]", "result": "Active"}, {"measurement": "inhibition", "setting": "[14]", "result": "Active"}, {"measurement": "inhibition", "setting": "[15]", "result": "Active"}, {"measurement": "inhibition", "setting": "[16]", "result": "Dose-dependent effect"}, {"measurement": "IC50", "setting": "[17]", "result": "> 91", "unit": "µM"}]}
